# Where a name gives a salt, the structure may show the parent alone. Marks after values point to notes of the source that are not given here.
# What was measured:
# Format in all cases: in vivo
# [1] = tested on: Male ICR mice; assay: Antagonism to morphine-induced constipation: graphite marker in the caecum; details: for Effect on morphine-induced constipation: at the clinical daily dosage and at 10 times of the clinical daily dosage
# [2] = tested on: Male ICR mice; assay: Antagonism to imipramine-induced constipation: carbon marker in the caecum
# Method: Male ICR mice were fasted overnight in wire-bottomed cages to prevent coprophagia, and 10 mice were used for each group. Imipramine hydrochloride (Wako Pure Chemical Industries, Ltd., Osaka, Japan) at 60 mg/kg was injected intraperitoneally to the animals. Immediately after the imipramine-injection, 0.1 mL of carbon marker (10% carbon powder suspension in 5% gum Arabic) and vehicle (physiological saline solution containing 0.01% polysorbate 80 and 0.5% ethanol) or test substance (13,14-dihydro-15-keto-16,16-difluoro-PGE1) in an administration volume of 5 mL/kg were orally administered. A normal control group received carbon marker and vehicle in the above volume orally without the imipramine-injection. One hundred and fifty minutes after the administration of carbon marker, animals were sacrificed by cervical dislocation, and examined the caecum for the presence of carbon marker. It was judged as a positive response when carbon marker was found in the caecum (positive scores).
# The effect to the imipramine-induced constipation was evaluated on the cathartic (sennoside) clinically used for the treatment of the constipation in patients. Preparation and dose levels of sennoside were the same as described in example 2. The experimental procedure was the same as described in example 4.
# [3] = tested on: Male ICR mice; assay: Effect on analgesic action of morphine: tail-pinch response time
# Method: Male ICR mice were fasted overnight in wire-bottomed cages to prevent coprophagia. The tail of the animal was pinched with clamp forceps, and the response time from the tail-pinch to fierce striking, biting or crying was measured. 18 mice whose response time of 2 second or shorter were used as test animals. […] Immediately after the morphine-injection, vehicle (physiological saline containing 0.01% polysorbate 80 and 0.5% ethanol) or 1, 10, or 100 μg/kg test substance (13,14-dihydro-15-keto-16,16-difluoro-PGE1) dissolved in the vehicle was administered orally in an administration volume of 5 mL/kg. The animals of normal control group received vehicle orally in the above volume without morphine-injection.
# The response time of each animal following tail-pinch was measured 30, 60, 90, 120 and 150 minutes after the administration. If a mouse took longer than 10 seconds to respond, measurement was stopped to avoid injuring the tail tissue, and the response time was recorded as 10 second.
# [4] = morphine 5 mg/kg i.p. + sodium picosulfate 0.15 mg/kg, 150 min after graphite marker
# [5] = morphine 5 mg/kg i.p. + sodium picosulfate 1.5 mg/kg, 150 min after graphite marker
# [6] = morphine 5 mg/kg i.p. + sennoside 0.48 mg/kg, 150 min after graphite marker
# [7] = morphine 5 mg/kg i.p. + sennoside 4.8 mg/kg, 150 min after graphite marker
# [8] = imipramine 60 mg/kg i.p. + sennoside 0.48 μg/kg, 150 min after carbon marker
# [9] = imipramine 60 mg/kg i.p. + sennoside 4.8 μg/kg, 150 min after carbon marker
# [10] = imipramine 60 mg/kg i.p. + vehicle orally, Example 4, Table 5
# [11] = imipramine 60 mg/kg i.p. + vehicle, Example 5, Table 6
# [12] = imipramine 60 mg/kg i.p. + test substance 10 μg/kg orally, 150 min after carbon marker
# [13] = imipramine 60 mg/kg i.p. + test substance 100 μg/kg orally, 150 min after carbon marker
compound,measurement,setting,value
"O=S(=O)(O)Oc1ccc(C(c2ccc(OS(=O)(=O)O)cc2)c2ccccn2)cc1 [sodium picosulfate, Sodium picosulfate]",Effect on morphine-induced constipation,[1],no effect
same,Number of animals with positive scores/Number of animals tested,[1]; [4],3/10
same,Ratio of animals with positive scores,[1]; [4],30%
same,Number of animals with positive scores/Number of animals tested,[1]; [5],4/10
same,Ratio of animals with positive scores,[1]; [5],40%
Sennoside,Effect on morphine-induced constipation,[1],no effect
same,Number of animals with positive scores/Number of animals tested,[1]; [6],2/10
same,Ratio of animals with positive scores,[1]; [6],20%
same,Number of animals with positive scores/Number of animals tested,[1]; [7],2/10
same,Ratio of animals with positive scores,[1]; [7],20%
same,Effect on the imipramine-induced constipation,"[2]; Example 5, results of Table 6",no effect
same,Number of animals with positive scores/Number of animals tested,[2]; [8],2/10
same,Ratio of animals with positive scores,[2]; [8],20%
same,Number of animals with positive scores/Number of animals tested,[2]; [9],2/10
same,Ratio of animals with positive scores,[2]; [9],20%
"CN1CC[C@]23c4c5ccc(O)c4O[C@H]2[C@@H](O)C=C[C@H]3[C@H]1C5.Cl [Morphine, Morphine hydrochloride, reference compound]",Number of animals with positive scores/Number of animals tested,"[1]; morphine 5 mg/kg i.p. + vehicle (0.5% tragacanth solution), Example 2, Table 2",2/10
same,Number of animals with positive scores/Number of animals tested,"[1]; morphine 5 mg/kg i.p. + vehicle (physiological saline), Example 2, Table 3",3/10
same,Number of animals with positive scores/Number of animals tested,"[1]; morphine 5 mg/kg i.p. + vehicle (saline, 0.01% polysorbate 80, 0.5% ethanol) orally, Example 1, Table 1",3
same,Number of animals with positive scores/Number of animals tested,"[1]; morphine 5 mg/kg i.p. + vehicle (saline, 0.01% polysorbate 80, 0.5% ethanol) orally, Example 1, Table 1, hydrochloride",3/15
same,"Response time, mean ± S.E.","[3]; morphine 5 mg/kg i.p. + vehicle orally, 30 min after administration",2.8 ± 0.6 s
same,"Response time, mean ± S.E.","[3]; morphine 5 mg/kg i.p. + vehicle orally, 60 min after administration",1.9 ± 0.3 s
same,"Response time, mean ± S.E.","[3]; morphine 5 mg/kg i.p. + vehicle orally, 90 min after administration",1.8 ± 0.4^+ sec.
same,"Response time, mean ± S.E.","[3]; morphine 5 mg/kg i.p. + vehicle orally, 120 min after administration",1.4 ± 0.2 s
same,"Response time, mean ± S.E.","[3]; morphine 5 mg/kg i.p. + vehicle orally, 150 min after administration",1.2 ± 0.1 s
same,"Response time, mean ± S.E.","[3]; morphine 5 mg/kg i.p. + vehicle orally, before administration",1.0 ± 0.1 s
"CN(C)CCCN1c2ccccc2CCc2ccccc21 [Imipramine, Imipramine hydrochloride]",Number of animals with positive scores/Number of animals tested,[2]; [10],1/10
same,Ratio of animals with positive scores,[2]; [10],10%
same,Number of animals with positive scores/Number of animals tested,[2]; [11],1/10
same,Ratio of animals with positive scores,[2]; [11],10%
"CCCCC(F)(F)C(=O)CCC1C(O)CC(=O)C1CCCCCCC(=O)O (centres unmarked) [test substance, 13,14-dihydro-15-keto-16,16-difluoro-PGE1]",Ratio of animals with positive scores,"[1]; morphine 5 mg/kg i.p. + test substance 1 μg/kg orally, 150 min after graphite marker",60%
same,Ratio of animals with positive scores,"[1]; morphine 5 mg/kg i.p. + test substance 10 μg/kg orally, 150 min after graphite marker",87%
same,Ratio of animals with positive scores,"[1]; morphine 5 mg/kg i.p. + test substance 100 μg/kg orally, 150 min after graphite marker",93%
same,Antagonism of morphine-induced constipation compared with control (morphine+vehicle) group,"[1]; test substance 1, 10 or 100 μg/kg orally immediately after morphine",significantly antagonized
same,"Response time, mean ± S.E.","[3]; morphine 5 mg/kg i.p. + test substance 1 μg/kg orally, 30 min after administration",3.2 ± 0.7 s
same,"Response time, mean ± S.E.","[3]; morphine 5 mg/kg i.p. + test substance 1 μg/kg orally, 60 min after administration",2.3 ± 0.6^+ sec.
same,"Response time, mean ± S.E.","[3]; morphine 5 mg/kg i.p. + test substance 1 μg/kg orally, 90 min after administration",1.5 ± 0.2 s
same,"Response time, mean ± S.E.","[3]; morphine 5 mg/kg i.p. + test substance 1 μg/kg orally, 120 min after administration",1.3 ± 0.1 s
same,"Response time, mean ± S.E.","[3]; morphine 5 mg/kg i.p. + test substance 1 μg/kg orally, 150 min after administration",1.3 ± 0.1 s
same,"Response time, mean ± S.E.","[3]; morphine 5 mg/kg i.p. + test substance 1 μg/kg orally, before administration",1.0 ± 0.1 s
same,"Response time, mean ± S.E.","[3]; morphine 5 mg/kg i.p. + test substance 10 μg/kg orally, 30 min after administration",3.4 ± 0.5 s
same,"Response time, mean ± S.E.","[3]; morphine 5 mg/kg i.p. + test substance 10 μg/kg orally, 60 min after administration",1.8 ± 0.2 s
same,"Response time, mean ± S.E.","[3]; morphine 5 mg/kg i.p. + test substance 10 μg/kg orally, 90 min after administration",1.4 ± 0.1 s
same,"Response time, mean ± S.E.","[3]; morphine 5 mg/kg i.p. + test substance 10 μg/kg orally, 120 min after administration",1.3 ± 0.1 s
same,"Response time, mean ± S.E.","[3]; morphine 5 mg/kg i.p. + test substance 10 μg/kg orally, 150 min after administration",1.2 ± 0.1 s
same,"Response time, mean ± S.E.","[3]; morphine 5 mg/kg i.p. + test substance 10 μg/kg orally, before administration",1.0 ± 0.1 s
same,"Response time, mean ± S.E.","[3]; morphine 5 mg/kg i.p. + test substance 100 μg/kg orally, 30 min after administration",2.9 ± 0.6 s
same,"Response time, mean ± S.E.","[3]; morphine 5 mg/kg i.p. + test substance 100 μg/kg orally, 60 min after administration",1.8 ± 0.3 s
same,"Response time, mean ± S.E.","[3]; morphine 5 mg/kg i.p. + test substance 100 μg/kg orally, 90 min after administration",1.5 ± 0.1 s
same,"Response time, mean ± S.E.","[3]; morphine 5 mg/kg i.p. + test substance 100 μg/kg orally, 120 min after administration",1.2 ± 0.1 s
same,"Response time, mean ± S.E.","[3]; morphine 5 mg/kg i.p. + test substance 100 μg/kg orally, 150 min after administration",1.3 ± 0.1 s
same,"Response time, mean ± S.E.","[3]; morphine 5 mg/kg i.p. + test substance 100 μg/kg orally, before administration",1.0 ± 0.1 s
same,Effect on the analgesic action of morphine,"[3]; test substance 1, 10 or 100 μg/kg orally, compared with morphine+vehicle group",did not affect
same,Number of animals with positive scores/Number of animals tested,[2]; [12],3/10
same,Ratio of animals with positive scores,[2]; [12],30%
same,Number of animals with positive scores/Number of animals tested,[2]; [13],7/10**
same,Ratio of animals with positive scores,[2]; [13],70%

# Source: US6982283B2, “Method for treating drug-induced constipation” (Sucampo AG, priority 2001, dated 2006)
